Tests used:
Assay type in all cases: in vivo
[1] = system: Triticum aestivum; experiment: Crop compatibility post-emergence, greenhouse pot test
Outline: (§1)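 Visual % damage versus untreated plants, read about 3 weeks after treatment (100% = plants died, 0% = as control). Crops were sown in sandy loam pots in a greenhouse and sprayed at one-leaf stage with WP/EC compound in water with 0.5% additive, 600 L/ha.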

[2] = system: Echinochloa crus-galli; experiment: Herbicidal action post-emergence, greenhouse pot test
Outline: (§2)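 Compounds formulated as wettable powders or emulsion concentrates were applied post-emergence at 80 g/ha or lower to one-leaf plants grown in sandy loam. Percent efficacy relative to untreated controls was assessed visually roughly 3 weeks after treatment.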

[3] = system: Stellaria media; experiment: as above
Outline: as §2

[4] = system: Matricaria inodora; experiment: as above
Outline: as §2

[5] = system: Amaranthus retroflexus; experiment: as above
Outline: as §2

[6] = system: Viola tricolor; experiment: as above; conditions: application rate 20 g/ha
Outline: as §2

[7] = system: Abutilon theophrasti; experiment: as above
Outline: as §2

[8] = system: Pharbitis purpurea; experiment: as above
Outline: as §2

[9] = system: Polygonum convolvulus; experiment: as above
Outline: as §2

[10] = system: Setaria viridis; experiment: as above
Outline: as §2

[11] = system: Lolium rigidum; experiment: as above
Outline: as §2

[12] = system: Hordeum murinum; experiment: as above
Outline: as §2

[13] = system: Veronica persica; experiment: as above
Outline: as §2

[14] = system: Matricaria inodora; experiment: Herbicidal action pre-emergence, greenhouse pot test; conditions: application rate 80 g/ha
[15] = system: Cyperus esculentus; experiment: as above; conditions: application rate 320 g/ha
Outline: (§3)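 Visual scoring of percentage efficacy against untreated controls, about 3 weeks after treatment, gives the value; 100% means dead plants, 0% means no difference. Test compounds went onto the covering soil of freshly sown pots at 320 g/ha or lower.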

[16] = system: Alopecurus myosuroides; experiment: as above; conditions: application rate 320 g/ha
Outline: as §3

[17] = system: Echinochloa crus-galli; experiment: as above; conditions: application rate 320 g/ha
Outline: as §3

[18] = system: Stellaria media; experiment: as above; conditions: application rate 80 g/ha
Outline: as §3

[19] = system: Amaranthus retroflexus; experiment: as above; conditions: application rate 80 g/ha
Outline: as §3

[20] = system: Viola tricolor; experiment: as above; conditions: application rate 320 g/ha
Outline: as §3

[21] = system: Abutilon theophrasti; experiment: as above; conditions: application rate 320 g/ha
Outline: as §3

[22] = system: Pharbitis purpurea; experiment: as above; conditions: application rate 320 g/ha
Outline: as §3

[23] = system: Polygonum convolvulus; experiment: as above; conditions: application rate 320 g/ha
Outline: as §3

[24] = system: Setaria viridis; experiment: as above; conditions: application rate 320 g/ha
Outline: as §3

[25] = system: Lolium rigidum; experiment: as above; conditions: application rate 320 g/ha
Outline: as §3

[26] = system: Hordeum murinum; experiment: as above; conditions: application rate 320 g/ha
Outline: as §3

[27] = system: Avena fatua; experiment: as above; conditions: application rate 320 g/ha
Outline: as §3

[28] = system: Veronica persica; experiment: as above; conditions: application rate 320 g/ha
Outline: as §3

[29] = system: Alopecurus myosuroides; experiment: Herbicidal action post-emergence, greenhouse pot test; conditions: application rate 20 g/ha, scored visually after about 3 weeks vs untreated controls
Outline: as §2

[30] = system: Digitaria sanguinalis; experiment: as above; conditions: application rate 20 g/ha
[31] = system: Oryza sativa; experiment: Crop compatibility post-emergence, greenhouse pot test; conditions: application rate 5 g/ha
Outline: as §1

[32] = system: Zea mays; experiment: as above; conditions: application rate 5 g/ha
Outline: as §1

CC(Sc1cc(-n2c(=O)cc(C(F)(F)F)n(C)c2=O)c(F)cc1Cl)C(=O)OCCC(=O)OC(C)(C)C (stereo not shown) [I.1-5]
Triticum aestivum (Efficacy in %) ([1]; application rate 80 g/ha): 20%
Echinochloa crus-galli (Efficacy in %) ([2]; application rate 80 g/ha): 100%
Stellaria media (Efficacy in %) ([3]; application rate 80 g/ha): 100%
Matricaria inodora (Efficacy in %) ([4]; application rate 80 g/ha): 100%
Amaranthus retroflexus (Efficacy in %) ([5]; application rate 80 g/ha): 100%
Viola tricolor (Efficacy in %) [6]: 100%
Abutilon theophrasti (Efficacy in %) ([7]; application rate 80 g/ha): 100%
Pharbitis purpurea (Efficacy in %) ([8]; application rate 80 g/ha): 100%
Polygonum convolvulus (Efficacy in %) ([9]; application rate 80 g/ha): 100%
Setaria viridis (Efficacy in %) ([10]; application rate 80 g/ha): 100%
Lolium rigidum (Efficacy in %) ([11]; application rate 80 g/ha): 80%
Hordeum murinum (Efficacy in %) ([12]; application rate 80 g/ha): 80%
Veronica persica (Efficacy in %) ([13]; application rate 80 g/ha): 100%
Matricaria inodora (Efficacy in %) [14]: 100%
Cyperus esculentus (Efficacy in %) [15]: 80%
Alopecurus myosuroides (Efficacy in %) [16]: 100%
Echinochloa crus-galli (Efficacy in %) [17]: 100%
Stellaria media (Efficacy in %) [18]: 100%
Amaranthus retroflexus (Efficacy in %) [19]: 100%
Viola tricolor (Efficacy in %) [20]: 100%
Abutilon theophrasti (Efficacy in %) [21]: 100%
Pharbitis purpurea (Efficacy in %) [22]: 100%
Polygonum convolvulus (Efficacy in %) [23]: 100%
Setaria viridis (Efficacy in %) [24]: 100%
Lolium rigidum (Efficacy in %) [25]: 100%
Hordeum murinum (Efficacy in %) [26]: 100%
Avena fatua (Efficacy in %) [27]: 100%
Veronica persica (Efficacy in %) [28]: 100%

CC(Sc1cc(-n2c(=O)cc(C(F)(F)F)n(C)c2=O)c(F)cc1Cl)C(=O)OCC(=O)OCc1ccccc1 (stereo not shown) [I.1-46]
Triticum aestivum (Efficacy in %) ([1]; application rate 20 g/ha): 20%
Alopecurus myosuroides (Efficacy in %) [29]: 80%
Echinochloa crus-galli (Efficacy in %) ([2]; application rate 20 g/ha): 100%
Stellaria media (Efficacy in %) ([3]; application rate 20 g/ha): 100%
Matricaria inodora (Efficacy in %) ([4]; application rate 20 g/ha): 100%
Amaranthus retroflexus (Efficacy in %) ([5]; application rate 20 g/ha): 100%
Viola tricolor (Efficacy in %) [6]: 100%
Abutilon theophrasti (Efficacy in %) ([7]; application rate 20 g/ha): 100%
Pharbitis purpurea (Efficacy in %) ([8]; application rate 20 g/ha): 100%
Polygonum convolvulus (Efficacy in %) ([9]; application rate 20 g/ha): 100%
Setaria viridis (Efficacy in %) ([10]; application rate 20 g/ha): 100%
Lolium rigidum (Efficacy in %) ([11]; application rate 20 g/ha): 80%
Hordeum murinum (Efficacy in %) ([12]; application rate 20 g/ha): 100%
Veronica persica (Efficacy in %) ([13]; application rate 20 g/ha): 100%
Digitaria sanguinalis (Efficacy in %) [30]: 100%

COC(=O)C1(OC(=O)C(C)Sc2cc(-n3c(=O)cc(C(F)(F)F)n(C)c3=O)c(F)cc2Cl)CC1 (stereo not shown) [I.1-102]
Oryza sativa (Efficacy in %) [31]: 0%
Zea mays (Efficacy in %) [32]: 0%
Echinochloa crus-galli (Efficacy in %) ([2]; application rate 20 g/ha): 100%
Stellaria media (Efficacy in %) ([3]; application rate 20 g/ha): 80%
Matricaria inodora (Efficacy in %) ([4]; application rate 20 g/ha): 100%
Amaranthus retroflexus (Efficacy in %) ([5]; application rate 20 g/ha): 100%
Viola tricolor (Efficacy in %) [6]: 100%
Abutilon theophrasti (Efficacy in %) ([7]; application rate 20 g/ha): 100%
Pharbitis purpurea (Efficacy in %) ([8]; application rate 20 g/ha): 100%
Polygonum convolvulus (Efficacy in %) ([9]; application rate 20 g/ha): 100%
Setaria viridis (Efficacy in %) ([10]; application rate 20 g/ha): 100%
Lolium rigidum (Efficacy in %) ([11]; application rate 20 g/ha): 80%
Hordeum murinum (Efficacy in %) ([12]; application rate 20 g/ha): 100%
Veronica persica (Efficacy in %) ([13]; application rate 20 g/ha): 100%
Digitaria sanguinalis (Efficacy in %) [30]: 100%
